Results as given in US5683895A, “9-deazaadenosine and its 5'-α-D-glycopyranoside isolated from the cyanobacterium Anabaena affinis strain VS-1” (priority 1995, dated 1997).
Values after ≈ are worked out from the molar mass of the structure shown.

Legend:
[1] = test system: L1210 murine leukemia cells; test: Cytotoxicity to L1210 murine leukemia cells; type: cell-based; conditions: Mus musculus
[2] = Lethal toxicity to the aquatic invertebrate Ceriodaphnia dubia (acute 48 hr and chronic 7 day); conditions: in vivo

For `Nc1ncnc2c([C@@H]3O[C@H](CO)[C@@H](O)[C@H]3O)c[nH]c12` [Compound 2, 9-deazaadenosine], the IC50 [1] was 0.002 µg/mL (≈ 0.00751 µM), the LC50 at 48 h [2] was 0.3 µg/mL (≈ 1.13 µM) and the LC50 at 168 h [2] was 0.1 µg/mL (≈ 0.376 µM).

In the case of `Nc1ncnc2c([C@@H]3O[C@H](CO[C@H]4O[C@H](CO)[C@@H](O)[C@H](O)[C@H]4O)[C@@H](O)[C@H]3O)c[nH]c12` [Compound 1, 9-deazaadenosine 5'-α-D-glucopyranoside], the IC50 [1] is reported as 0.01 µg/mL (≈ 0.0233 µM), the LC50 at 48 h [2] is reported as 0.5 µg/mL (≈ 1.17 µM) and the LC50 at 168 h [2] is reported as 0.3 µg/mL (≈ 0.7 µM).
